Source: patent publication US20140031388A1, “AKT INACTIVATION BY TOCOPHERYL DERIVATIVES” (priority 2012, published 2014)
Read-outs that look alike come from different tables or passages of the source.

What was measured:
[1] = target: T1, PH domain of PDK1 (GST-PH domain fusion protein) (Homo sapiens, UniProt O15530); test: Surface plasmon resonance binding, PDK1 PH domain; conditions: SPR; means (n = 3) ± SD; read-out: Kd, PDK1 PH domain
T1 construct: made in house
T1 sequence (O15530 459-550 limits assumed): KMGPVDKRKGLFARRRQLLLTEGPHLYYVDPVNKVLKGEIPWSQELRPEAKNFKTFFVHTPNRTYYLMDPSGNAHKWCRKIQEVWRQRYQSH
Description: (§1) The cDNA fragments corresponding to the putative PH domain sequences of PHLPP1 (+115 to +372), PDK1 (+1225 to +1671), Akt1 (+1 to +447) and ILK (+538 to +646) were PCR-amplified using the plasmids pcDNA-HA-PHLPP1, pWZL-Neo-Myr-FLAG-PDPK1, pcDNA-HA-PKB-T308D-S473D, and pCMV-SPORT-ILK (Addgene) as templates. The PCR products were then cloned into EcoRI/XhoI sites of the pGEX-4T1 expression vector (GE Healthcare Life Sciences) to generate four constructs (pGEX-4T1-PHLPP1, pGEX-4T1-PDPK1, pGEX-4T1-AKT1, pGEX-4T1-ILK) for the expression of GST-PH domain fusion proteins. The mutated Akt1 Y38G PH domain was generated from pGEX-4T1-AKT1 by site-directed mutagenesis using the QuikChange II XL Site-Directed Mutagenesis Kit (Agilent Technologies). The expression and purification of GST-PH domain fusion proteins were performed essentially as described previously. Thomas et al., Curr Biol 12, 1256 (2002). The purified PH domains were analyzed by SDS-PAGE using an overloaded gel with purities were estimated to be >95% using ImageJ software.
(§2) Binding experiments were performed using a Biacore T100 system (GE Healthcare, Piscataway, N.J.). The GST-PH domain fusion proteins were immobilized on a CM5 S Sensorchip using Biacore's Amine Coupling Kit to a level of 17,000 response units. VE5 compounds and di-octanoyl PIP3 at concentrations ranging from 0.1 to 100 μM and 1 to 20 μm, respectively, were injected at a high flow rate (30 μL/min) over the biosensor surface for binding analyses. DMSO concentrations in all samples and running buffer were 1% (v/v) or less. Data were analyzed using Biacore T100 Evaluation Software.

[2] = test system: Akt membrane localization in LNCaP cells; test: Immunocytochemistry, membrane localization of Akt; format: cell-based; conditions: DMSO-treated cells 38.0±5.7%
Method: After 24 hours treatment, LNCaP cells were fixed in 4% formaldehyde for 20 min before permeabilization with 0.1% Triton X-100 in PBS at room temperature for 1 hour followed by incubation in 1% FBS (in PBS) for 1 hour. Cells were stained for endogenous PH domain-containing proteins (Akt, PHLPP, PDK-1, ILK, BTK) by incubation with specific antibodies (1:100), followed by incubation with the Alexa Fluor 555-conjugated goat anti-rabbit or Alexa Fluor 488-conjugated goat anti-mouse IgG (1:200) at room temperature for 2 hours. Both primary and secondary antibodies were diluted in incubation buffer containing 0.1% Triton X-100 and 0.2% bovine serum albumin in PBS. The cells were washed in PBS after each step and mounted using […] mounting medium supplemented with DAPI (Vector Laboratories Inc., Burlingame, Calif.). The slides were allowed to set for at least 4 hours before confocal images were acquired using a Zeiss LSM 510 inverted confocal laser scanning microscope operated with Zeiss LSM 510 software. Image analysis was performed using ImageJ (NIH) software.

LNCaP and PC-3 cells = test: MTT viability assay, one value stated for both prostate cancer lines; format: cell-based; conditions: for IC50: Homo sapiens, MTT, serum-free medium, one value for LNCaP and PC-3, read-out: IC50, antiproliferative effect / viability; for potency relative to parent tocopherol: Ser-473-Akt dephosphorylation and viability of prostate cancer cells
Method: (§3) The prostate cancer cell lines, LNCaP and PC-3, were purchased from American Type Culture Collection (Manassas, Va.) and maintained in RPMI 1640 medium containing 10% heat-inactivated fetal bovine serum at 37° C. in a humidified incubator containing 5% CO2. The LNCaP-abl cells were a generous gift from Dr. Qianben Wang (The Ohio State University). Normal prostate epithelial cells were purchased from Lonza (Walkersville, Md.) and were cultured in the vendor-recommended defined prostate epithelial cell growth medium. For experiments, LNCaP cells were plated on poly-D-lysine-coated culture flasks at a density of 12,000 cells per cm^2 surface area for 24 hours, followed by treatment with test agents in serum-free RPMI 1640 medium. The α- and γ-tocopherols were purchased from Sigma-Aldrich (St. Louis, Mo.). The tocopherol derivatives, α- and γ-VE5, were synthesized by the inventors.
(§4) LNCaP cells were plated into poly-D-lysine-coated 96-well plates and PC-3 and LNCaP-abl cells into uncoated plates at the density of 5,000 cells per well in the presence of 10% FBS. Normal prostate epithelial cells were plated into uncoated plates at a density of 8,000 cells per well. Exposure to test agents in serum-free medium was initiated 24 hours later. After 24 hours of treatment, cells were incubated with MTT [3-(4,5-dimethylthiazol-2-yl)-2,5-diphenyl-2H-tetrazolium bromide] (TCI America; 0.5 mg/ml, final concentration) for an additional 2 hours. The medium was then removed from each well and replaced with DMSO to dissolve the reduced MTT dye for subsequent colorimetric measurement of absorbance at 595 nm. Cell viabilities are calculated as percentages of that in the corresponding vehicle-treated control group.

[3] = test system: Normal prostate epithelial cells; test: Viability / apoptosis in normal prostate epithelial cells; format: cell-based; conditions: Epithelial cell
Method: as §3, §4

[4] = target: T2, PH domain of PHLPP1 (GST-PH domain fusion protein) (Homo sapiens, UniProt O60346); test: Surface plasmon resonance binding, PHLPP1 PH domain; conditions: SPR; means (n = 3) ± SD; read-out: Kd, PHLPP1 PH domain
T2 construct: made in house
T2 sequence (O60346 536-636 limits assumed): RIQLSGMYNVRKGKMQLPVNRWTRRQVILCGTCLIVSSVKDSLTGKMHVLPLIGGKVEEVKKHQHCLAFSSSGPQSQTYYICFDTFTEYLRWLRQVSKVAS
Description: as §1, §2

PC-3 cells = test: MTT viability assay, PC-3; format: cell-based; conditions: Homo sapiens
Method: as §3
as §4, with “Exposure to test agents in serum-free medium was initiated 24 hours later.” left out

Row | SMILES | Kd [1] [µM] | cells with membrane localization of Akt [2] [%] | IC50 (LNCaP and PC-3 cells) [µM] | potency relative to parent tocopherol (LNCaP and PC-3 cells) [fold] | potency relative to parent tocopherol (LNCaP and PC-3 cells; listed as a-VE5) [fold] | IC50 [3] [µM] | Kd [4] [µM] | IC50 (PC-3 cells; PC-3, 1% FBS-containing or serum-free RPMI 1640 medium for 24 h, read-out: IC50 (μM) PC-3) [µM] | IC50 (PC-3 cells; PC-3, 24 h, 1% FBS-containing or serum-free RPMI 1640 medium for 24 h, read-out: IC50 (μM) PC-3) [µM] | IC50 (PC-3 cells; PC-3, Table 3, antitumor activities against PC-3 cells, read-out: IC50) [µM]
1 | Cc1c(C)c2c(c(C)c1O)CC[C@@](C)(CCCC(C)C)O2 [α-VE5, (R)-2,5,7,8-tetramethyl-2-(4-methylpentyl)-chroman-6-ol] | 19.3 ± 0.6 | 65.0±8.9 | 15 to 20 | 50 | 10 | ~50 | 3.1 ± 0.3 | 15 |  | 
2 | Cc1c(O)cc2c(c1C)O[C@](C)(CCCC(C)C)CC2 [γ-VE5, (R)-2,7,8-trimethyl-2-(4-methylpentyl)-chroman-6-ol] | 12.4 ± 0.1 | 71.4±2.5 | 7 to 10 |  |  | ~40 | 0.7 ± 0.1 |  | 8 | 8.5
